Legend:
[1] = Solubility Assay (UV/vis spectroscopy, filter method); conditions: 1 × PBS pH 7.4, 500 μM, UV/vis 280–360 nm minus 800 nm
[2] = test system: synchronized Plasmodium falciparum parasites; assay: Microscopical study of cell morphology after 8-h exposures (Figure S4); format: cell-based; conditions: 3× the IC50^8h of the most sensitive life stage, 8-h intervals

Row | Structure (SMILES) | Ratio fil./std. (absorbance filtrate/standard) [1] | digestive vacuole morphology [2] | most susceptible stage by cell morphology [2]
1 | CC(C)(C)c1ccc2c(c1)CN(Cc1ccc(Cl)cc1)CO2 [MMV000442] | 0.74 | – | –
2 | CN(C)Cc1ccc(-c2cc3c(-c4ccc(CN(C)C)cc4)ccnc3[nH]2)cc1.O=C(O)C(F)(F)F [MMV022224] | – | without displaying swollen vacuoles | early and late trophozoite stages

Reference: paper PMC7031696 (Cell chemical biology, 2019)
